Reference: patent publication US4112228A, “7-(D-α-Hydroxy-2-arylacetamido)-3-(2-carboxyalkyl-2,3-dihydro-s-tri azolo-[4,3-b]pyridazin-3-on-6-ylthiomethyl)-3-cephem-4-carboxylic acids and derivatives” (priority 1977, dated 1978)
In brackets after ≈: the same amount, converted by molar mass. Like-named read-outs stand apart in the source and are kept apart here.

Experiments:
[1] = system: E. coli; assay: MIC by Steers' agar dilution method; format: cell-based; settings: Escherichia coli, read-out: MIC
[2] = system: Sal. typhosa; assay: MIC by Steers' agar dilution method; format: cell-based; settings: MHA
[3] = system: Serr. marcescens; assay: MIC by Steers' agar dilution method; settings: Serratia marcescens
[4] = Urinary recovery in rats; format: in vivo; settings: rat, urine, sc 10 mg./kg., 0-24 Hrs.
[5] = system: Shig. flexneri; assay: MIC by Steers' agar dilution method; format: cell-based; settings: Shigella flexneri, MHA

Compound: O=C(O)Cn1nc2ccc(SCC3=C(C(=O)O)N4C(=O)C(NC(=O)[C@H](O)c5ccccc5)[C@H]4SC3)nn2c1=O (stereo partly drawn) [BB-S488, 7-(D-Mandelamido)-3-(2-carboxymethyl-2,3-dihydro-s-triazolo[4,3-b]pyridazin-3-on-6-ylthiomethyl)-3-cephem-4-carboxylic Acid]
- MIC ([1]; BX-1373, MHA, Table 1): 0.2 µg/mL (≈ 0.349 µM)
- MIC ([1]; Ec-1 NIHJ, HIA, Table 4): 0.05 µg/mL (≈ 0.0873 µM)
- MIC ([1]; Ec-1 NIHJ, MHA, Table 3): 0.2 µg/mL (≈ 0.349 µM)
- MIC ([1]; Ec-1 NIHJ, MHA, Table 4): 0.05 µg/mL (≈ 0.0873 µM)
- MIC ([1]; Ec-1 NIHJ, NA, Table 4): 0.1 µg/mL (≈ 0.175 µM)
- MIC ([1]; Ec-3 Juhl A15119, HIA, Table 4): 0.4 µg/mL (≈ 0.699 µM)
- MIC ([1]; Ec-3 Juhl A15119, MHA, Table 3): 0.2 µg/mL (≈ 0.349 µM)
- MIC ([1]; Ec-3 Juhl A15119, MHA, Table 4): 0.2 µg/mL (≈ 0.349 µM)
- MIC ([1]; Ec-3 Juhl A15119, NA, Table 4): 0.2 µg/mL (≈ 0.349 µM)
- MIC ([1]; Ec-4 A15169, MHA, Table 3): 12.5 µg/mL (≈ 21.8 µM)
- MIC ([1]; Ec-5 K-12, ML-1630 A20363, MHA, Table 3): 0.2 µg/mL (≈ 0.349 µM)
- MIC ([1]; Ec-11 A20366 (β-lactamase), HIA, Table 4): > 100 µg/mL
- MIC ([1]; Ec-11 A20366 (β-lactamase), MHA, Table 4): > 100 µg/mL
- MIC ([1]; Ec-11 A20366 (β-lactamase), NA, Table 4): > 100 µg/mL
- MIC ([1]; Ec-11 A20366, MHA, Table 3): 50 µg/mL (≈ 87.3 µM)
- MIC ([1]; Ec-34 A9660, MHA, Table 3): 0.1 µg/mL (≈ 0.175 µM)
- MIC ([1]; Ec-35 A9435, MHA, Table 3): 0.4 µg/mL (≈ 0.699 µM)
- MIC ([1]; Ec-36 A15147 (β-lactamase), HIA, Table 4): 6.3 µg/mL (≈ 11 µM)
- MIC ([1]; Ec-36 A15147 (β-lactamase), MHA, Table 4): 6.3 µg/mL (≈ 11 µM)
- MIC ([1]; Ec-36 A15147 (β-lactamase), NA, Table 4): 6.3 µg/mL (≈ 11 µM)
- MIC ([1]; Ec-36 A15147, MHA, Table 3): 3.1 µg/mL (≈ 5.41 µM)
- MIC ([1]; Ec-40 A20361, MHA, Table 3): 0.2 µg/mL (≈ 0.349 µM)
- MIC ([1]; Ec-44 A9535, MHA, Table 3): 0.1 µg/mL (≈ 0.175 µM)
- MIC ([1]; Ec-45 A15148, MHA, Table 3): 3.1 µg/mL (≈ 5.41 µM)
- MIC ([1]; Ec-46 A15164 (β-lactamase), HIA, Table 4): > 100 µg/mL
- MIC ([1]; Ec-46 A15164 (β-lactamase), MHA, Table 4): 100 µg/mL (≈ 175 µM)
- MIC ([1]; Ec-46 A15164 (β-lactamase), NA, Table 4): 50 µg/mL (≈ 87.3 µM)
- MIC ([1]; Ec-46 A15164, MHA, Table 3): 25 µg/mL (≈ 43.7 µM)
- MIC ([1]; Ec-47 A15170, MHA, Table 3): 100 µg/mL (≈ 175 µM)
- MIC ([1]; Ec-49 A20107, MHA, Table 3): 0.4 µg/mL (≈ 0.699 µM)
- MIC ([1]; Ec-50 A20109, MHA, Table 3): 0.2 µg/mL (≈ 0.349 µM)
- MIC ([1]; Ec-51 A20343 (β-lactamase), HIA, Table 4): > 100 µg/mL
- MIC ([1]; Ec-51 A20343 (β-lactamase), MHA, Table 4): > 100 µg/mL
- MIC ([1]; Ec-51 A20343 (β-lactamase), NA, Table 4): 50 µg/mL (≈ 87.3 µM)
- MIC ([1]; Ec-51 A20343, MHA, Table 3): 50 µg/mL (≈ 87.3 µM)
- MIC ([1]; Ec-56 A20365, MHA, Table 3): 25 µg/mL (≈ 43.7 µM)
- MIC ([1]; Ec-58 A9675, MHA, Table 3): 0.4 µg/mL (≈ 0.699 µM)
- MIC ([1]; Ec-59 A20766, MHA, Table 3): 0.2 µg/mL (≈ 0.349 µM)
- MIC ([1]; Ec-62 A20895, MHA, Table 3): 0.4 µg/mL (≈ 0.699 µM)
- MIC ([1]; Juhl A15119, MHA, Table 1): 0.2 µg/mL (≈ 0.349 µM)
- MIC ([1]; Juhl, MHA, Example 10): 0.2 µg/mL (≈ 0.349 µM)
- MIC ([1]; NIHJ, MHA, Example 10): 0.2 µg/mL (≈ 0.349 µM)
- MIC ([1]; NIHJ, MHA, Table 1): 0.025 µg/mL (≈ 0.0437 µM)
- MIC ([1]; strain not named (1st of 3), MHA, Example 10): 0.1 µg/mL (≈ 0.175 µM)
- MIC ([1]; strain not named (2nd of 3), MHA, Example 10): 0.05 µg/mL (≈ 0.0873 µM)
- MIC ([1]; strain not named (3rd of 3), MHA, Example 10): 3.1 µg/mL (≈ 5.41 µM)
- MIC ([2]; A9498, Table 1): 0.05 µg/mL (≈ 0.0873 µM)
- MIC ([2]; Example 10): 0.05 µg/mL (≈ 0.0873 µM)
- MIC ([3]; A20019, MHA, Table 1): 100 µg/mL (≈ 175 µM)
- MIC ([3]; MHA, Example 10): > 100 µg/mL
- MIC ([3]; Sm-1 A20019 (β-lactamase), HIA, Table 4): > 100 µg/mL
- MIC ([3]; Sm-1 A20019 (β-lactamase), MHA, Table 4): > 100 µg/mL
- MIC ([3]; Sm-1 A20019 (β-lactamase), NA, Table 4): > 100 µg/mL
- MIC ([3]; Sm-1 A20019, MHA, Table 3): 25 µg/mL (≈ 43.7 µM)
- MIC ([3]; Sm-2 A20335, MHA, Table 3): 3.1 µg/mL (≈ 5.41 µM)
- MIC ([3]; Sm-3 A20336, HIA, Table 4): > 100 µg/mL
- MIC ([3]; Sm-3 A20336, MHA, Table 3): 6.3 µg/mL (≈ 11 µM)
- MIC ([3]; Sm-3 A20336, MHA, Table 4): 0.8 µg/mL (≈ 1.4 µM)
- MIC ([3]; Sm-3 A20336, NA, Table 4): 100 µg/mL (≈ 175 µM)
- MIC ([3]; Sm-4 A20442, MHA, Table 3): 6.3 µg/mL (≈ 11 µM)
- MIC ([3]; Sm-5 A20222, MHA, Table 3): 3.1 µg/mL (≈ 5.41 µM)
- MIC ([3]; Sm-6 A20460, MHA, Table 3): 6.3 µg/mL (≈ 11 µM)
- MIC ([3]; Sm-9 A20333, MHA, Table 3): 6.3 µg/mL (≈ 11 µM)
- MIC ([3]; Sm-10 A20334, MHA, Table 3): 6.3 µg/mL (≈ 11 µM)
- MIC ([3]; Sm-11 A20459, MHA, Table 3): 6.3 µg/mL (≈ 11 µM)
- MIC ([3]; Sm-12 A20461, MHA, Table 3): 6.3 µg/mL (≈ 11 µM)
- dose excreted at 24 h [4]: 38.8%
- MIC ([5]; A9684, Table 1): 12.5 µg/mL (≈ 21.8 µM)
- MIC ([5]; Example 10): 25 µg/mL (≈ 43.7 µM)
- MIC ([5]; Sr-1 A9684, Table 3): 12.5 µg/mL (≈ 21.8 µM)
